According to patent US20210371855A1, “METHODS OF INHIBITING PROLIFERATIVE CELLS” (IDEAYA BIOSCIENCES, INC., priority 2018, published 2021):

How the values were obtained:
[1] = system: MSI cell lines, HCT116 and RKO; assay: Proliferation with WRN inhibitors, IncuCyte live-cell counting over 6 days; format: cell-based; settings: FIG. 12
Protocol: (§1) Cell lines were infected with NucLight Red lentivirus (Essen Biosciences cat #4476) to express a red fluorescent protein in the nucleus thus enabling live-cell counting. Two cell lines with high microsatellite instability (MSI), HCT116 and RKO, and two microsatellite stable (MSS) cell lines, SW620 and SW948, were treated with WRN inhibitors, NSC 19630 (Calbiochem cat #681647) and NSC 617145 (Sigma cat #SML 1005) as follows. Cells were counted and seeded in triplicate into a 96-well plate (500 cells/well for MSI and 1000 cells/well for MSS). The next day, the cells were treated with compounds and monitored over 6 days in an IncuCyte ZOOM instrument. The cell count from the last time point was used to calculate IC50 values using GraphPad Prism 7.

[2] = system: MSS cell lines, SW620 and SW948; assay: as above; format: cell-based; settings: SW620 and SW948, 6 days, FIG. 12
Protocol: as §1

MMR-deficient cells = settings: Yan et al. 2003; cited from earlier work
MLH1 reexpressing cells = assay: 6-thioguanine sensitivity of MLH1 reexpressing cells; format: cell-based; settings: FIG. 8C
MMR-proficient cells = settings: Yan et al. 2003; cited from earlier work

SMILES | effect on proliferation of MSI cell lines [1] | sensitivity of MSS cell lines to the inhibitors [2] | sensitivity of cells to 6-thioguanine (MMR-deficient cells) | sensitivity of cells to 6-TG (MLH1 reexpressing cells) | sensitivity of cells to 6-thioguanine (MMR-proficient cells)
CC(C)(CN1C(=O)C(Cl)=C(Cl)C1=O)CN1C(=O)C(Cl)=C(Cl)C1=O [NSC 617145] | decreased proliferation | differences in sensitivity | – | – | –
Nc1nc2nc[nH]c2c(=S)[nH]1 [6-TG, 6-thioguanine] | – | – | resistant | more sensitive | sensitive
CCC(=O)OCN1C(=O)C=CC1=O [NSC 19630] | decreased proliferation | differences in sensitivity | – | – | –
